Measured values from patent publication US5968933A, “DNA-targeted alkylating agents” (Auckland Division Cancer Society of New Zealand Inc., priority 1994, dated 1999).
“Also recorded” adds a separate entry of the source. Like-named read-outs stand apart in the source and are kept apart here.

Tests used:
P388 cells = assay: Growth inhibition in vitro, P388 leukaemia; type: cell-based, murine
Protocol: (§1) Representative examples of compounds of the invention were tested for biological activity against tumors. Compounds 1 to 6 and 14 to 21, prepared as described above, were tested for their ability to inhibit growth in vitro of cells of the wild-type murine leukaemia cell line P388, and the cell line AA8 which is derived from Chinese hamster ovary cells. For each compound, the IC50, ie. the concentration of compound which inhibited cell growth in treated cultures to 50% of that of controls, was determined, using means of three determinations. In addition, a hypersensitivity factor was determined by comparing activity of the compounds against AA8 cells to activity against UV4. The latter cell line is deficient in aspects of the excision repair pathway for removing DNA adducts, and is hypersensitive to DNA-alkylating agents, especially interstrand crosslinking agents. Previous work has shown that the ratio of IC50 s determined in the wild-type AA8 and mutant UV4 lines (the hypersensitivity factor HF) is a determinant of the mode of cell killing by alkylating agents (Palmer, B. D. et al, J. Med. Chem., 1990 33 112-121; Wilson, W. R. et al, J. Med. Chem., 1989 32 31-38). Compounds with HFs of ca. 1 are unlikely to kill cells via DNA alkylation events. Compounds which show high HF values are likely to form bulky adducts or cross-links,with the latter being especially likely for compounds showing the highest HF values (>ca. 25) (Wilson et al, op. cit.).
(§2) Cell lines were maintained in exponential growth phase by subculturing in RPMI 1640 (P338) or Alpha MEM (AA8, UV4) containing 10% fetal calf serum, as previously described (Palmer et al, op.cit.; Baguley, B. C. and Wilson, W. R., Eur. J. Cancer Clin. Oncol., 1987 23 607-613). IC50 values were determined using log-phase cultures in 96-well microculture plates, and were calculated as the nominal drug concentration required to reduce the cell density to 50% of control values, using 8 control cultures on each microplate. For P388 cultures, drug was present throughout the growth period (72 h), and final cell densities were determined using a minor modification of the MTT method of Mossman (Mossman, T., J. Immunol. Methods, 1983 65 55-63). For AA8 and UV4 cultures, drug exposure was terminated after 18 h by washing three times with fresh medium. Cultures were then grown for a further 72 h before determining cell density by staining with methylene blue (Finlay, G. J. et al, Anal. Biochem., 1984 139 272-277).

AA8 cells = assay: Growth inhibition in vitro, AA8; type: cell-based, Chinese hamster
Protocol: as §1, §2

S. typhimurium TA100 = assay: Bacterial mutagenicity, plate incorporation assay, TA100; conditions: for reversion colonies, TA100: mean ± SD
S. typhimurium TA102 = assay: Bacterial mutagenicity, plate incorporation assay, TA102; conditions: mean ± SD
S. typhimurium TA98 = assay: Bacterial mutagenicity, plate incorporation assay, TA98; conditions: mean ± SD
P338 murine leukaemia = type: in vivo, mice; conditions: for % Increase in lifespan: single i.p. dose 24 h after tumour inoculation, at optimal dose (mg/kg: 1 30; 2 30; 3 13.3; 4 3.9; 5 5.9; 6 8.9); for in vivo antitumour activity: P388, single-dose protocol
AA8 and UV4 cells = assay: Hypersensitivity factor (AA8/UV4 IC50 ratio); type: cell-based, Chinese hamster; conditions: ratio of IC50s AA8/UV4
Protocol: as §1, §2

calf thymus DNA [1] = assay: Rate of alkylation of calf thymus DNA by increase in DNA-bound fluorescence; type: biochemical; parameters: unit not given here
linearized pSV2gpt DNA = assay: DNA crosslinking assay (agarose gel electrophoresis of linearized plasmid); type: biochemical; conditions: 2 h at 30° C., TE-80 buffer pH 8
Protocol: The ability of representative compounds of the invention to bind to and cross-link DNA was examined. This was carried out by agarose gel electrophoresis of plasmid DNA using linearized pSV2gpt DNA (Tindall, K. R. and Stankowski, L. F.; Mutation Research, 1989 220 241-245) and the method reported by Valu et al, 1990, op.cit. Briefly, linearized pSV2gpt DNA (1 μL of a 1 mg/mL solution) was incubated with drug in TE-80 buffer (10 mM Tris.HCl, 1 mM EDTA at pH 8), shielded from ambient light, for 2 h at 30° C., then denatured by the addition of […] of 1% sodium dodecyl sulfate and 10 μL of 50 mM methylmercury hydroxide and incubated for a further 30 min at 20° C. in the dark. Renaturation of drug-treated DNA samples was carried out by incubation with 2.5 μL of 2-mercaptoethanol for 1 h. Samples were prepared for electrophoresis by the addition of 0.1 mg/mL bromophenol blue, 0.5 μg/mL ethidium bromide and 5 μL of 40% sucrose. Electrophoresis was carried out at 120V in 89 mM tris/borate buffer at pH 8 containing 2 mM EDTA and 0.5 μg/mL ethidium bromide. DNA was visualized using 302 nm trans-illumination, and was photographed using Polaroid type 55 film and a Wratten 3A filter.
After drug treatment, DNA is denatured to the single stranded form, which runs as a lower band in the gels (see lanes 1 and 2 in FIG. 1). Cross-linking by the drugs is evidenced by the appearance of increasing amounts of renatured, double stranded DNA, as shown by the upper band in the gels, corresponding to the band for untreated DNA seen in lane 1.

calf thymus DNA [2] = assay: Reversible DNA binding by spectrophotometric Scatchard analysis; conditions: 20° C., 0.01M HEPES buffer, pH 7.00
[3] = tested on: Saccharomyces cerevisiae strain D5; conditions: yeast strain D5, in words
[4] = 40 μg/plate, square brackets: toxicity becoming apparent
[5] = 80 μg/plate, square brackets: toxicity becoming apparent
[6] = P388 cells, 72 h, MTT, read-out: IC50
[7] = AA8 cells, 18 h exposure, then 72 h growth, methylene blue, read-out: IC50
[8] = 120 μg/plate, square brackets: toxicity becoming apparent
[9] = compound 4 versus compounds 2 and 3

Compound | IC50 (P388 cells; Mus musculus, P388, 72 h) [nM] | reversion colonies, TA100 (S. typhimurium TA100; 4 μg/plate) | reversion colonies, TA100 (S. typhimurium TA100; 10 μg/plate) | reversion colonies, TA100 (S. typhimurium TA100; 20 μg/plate) | reversion colonies, TA100 (S. typhimurium TA100; 40 μg/plate) | reversion colonies, TA100 (S. typhimurium TA100; 80 μg/plate) | reversion colonies, TA102 (S. typhimurium TA102; 4 μg/plate) | reversion colonies, TA102 (S. typhimurium TA102; 10 μg/plate) | reversion colonies, TA102 (S. typhimurium TA102; 20 μg/plate) | reversion colonies, TA102 (S. typhimurium TA102; [4]) | reversion colonies, TA98 (S. typhimurium TA98; 4 μg/plate) | reversion colonies, TA98 (S. typhimurium TA98; 10 μg/plate) | reversion colonies, TA98 (S. typhimurium TA98; 20 μg/plate) | reversion colonies, TA98 (S. typhimurium TA98; 40 μg/plate) | reversion colonies, TA98 (S. typhimurium TA98; [5]) | Optimal dose (P338 murine leukaemia; single i.p. dose) [mg/kg] | % Increase in lifespan (P338 murine leukaemia) [%] | Hypersensitivity factor (AA8 and UV4 cells) | Rate constant for alkylation (calf thymus DNA [1]) | IC50 (P388 cells; [6]) [nM] | other results
CN1CCN(c2ccc3nc(-c4ccc5nc(-c6ccc(N(C)CCCl)cc6)[nH]c5c4)[nH]c3c2)CC1 [Compound 1, 2-[2-[4-(N-methyl-N-(2-chloroethyl)amino)phenyl]-5-benzimidazolyl]-5-(1-methyl-4-piperazinyl)benzimidazole] | 500 | 196 ± 23 | 162 ± 21 | 172 ± 13 | 226 ± 23 | 207 ± 12 | 406 ± 20 | 417 ± 26 | 442 ± 62 | 442 ± 43 | 70 ± 3 | 62 ± 7 | 67 ± 9 | 52 ± 7 | 65 ± 3 | 30 | 86 | 14 | – | – | IC50 (AA8 cells; Cricetulus griseus, CHO-AA8): 5750 nM
CN1CCN(c2ccc3nc(-c4ccc5nc(Cc6ccc(N(CCCl)CCCl)cc6)[nH]c5c4)[nH]c3c2)CC1 [Compound 3, 2-[2-[[4-(N,N-bis(2-chloroethyl)amino)phenyl]methyl]-5-benzimidazolyl]-5-(1-methyl-4-piperazinyl)benzimidazole] | – | 154 ± 8 | 130 ± 10 | 137 ± 43 | 167 ± 24 | 167 ± 8 | 297 ± 38 | 237 ± 64 | 304 ± 16 | 268 ± 59 | 71 ± 2 | 83 ± 1 | 87 ± 6 | 86 ± 5 | 77 ± 10 | 13.3 | 71 | 59 | 3.01 × 10^4 | 850 | IC50 (AA8 cells; [7]): 1500 nM; reversion colonies, TA100 (S. typhimurium TA100; [8]): 157 ± 12; reversion colonies, TA102 (S. typhimurium TA102; [8]): 505 ± 121; reversion colonies, TA98 (S. typhimurium TA98; [8]): 86 ± 8; in vivo antitumour activity (P338 murine leukaemia): retained significant in vivo activity; Cross-linking (linearized pSV2gpt DNA): No; Site size (Number of nucleotide residues) (calf thymus DNA [2]): 3.0 nucleotide residues
CN1CCN(c2ccc3nc(-c4ccc5nc(CCc6ccc(N(CCCl)CCCl)cc6)[nH]c5c4)[nH]c3c2)CC1 [Compound 4, 2-[2-[2-[4-(N,N-bis(2-chloroethyl)amino)phenyl]ethyl]-5-benzimidazolyl]-5-(1-methyl-4-piperazinyl)benzimidazole] | – | 172 ± 4 | 231 ± 7 | 264 ± 12 | 237 ± 29 | 207 ± 10 | 340 ± 26 | 366 ± 49 | 429 ± 17 | 465 ± 41 | 71 ± 2 | 74 ± 10 | 75 ± 1 | 65 ± 6 | – | 3.9 | 52 | 47 | 4.62 × 10^4 | 10 | increase in cytotoxicity in P388 (P388 cells; [9]): 80 fold; IC50 (AA8 cells; [7]): 330 nM; increase in cytotoxicity in AA8 (AA8 cells; [9]): 5 fold; reversion colonies, TA100 (S. typhimurium TA100; [8]): 232 ± 19; mutagenicity in TA100 (S. typhimurium TA100; statistical analysis): could be considered to show a mutagenic effect in TA100; also recorded: mutagenic ability; reversion colonies, TA102 (S. typhimurium TA102; [5]): 609 ± 74; in vivo antitumour activity (P338 murine leukaemia): retained significant in vivo activity; average number of animals in a group of six which were long-term survivors (P338 murine leukaemia; single i.p. dose, optimal dose, group of six): 1 animals; Cross-linking (linearized pSV2gpt DNA): No; Site size (Number of nucleotide residues) (calf thymus DNA [2]): 2.8 nucleotide residues; aberrant colonies in yeast [3]: some aberrant colonies; mitotic crossing-over [3]: weak mitotic crossing-over
CCN(CCCl)c1ccc(CCCc2nc3ccc(-c4nc5ccc(N6CCN(C)CC6)cc5[nH]4)cc3[nH]2)cc1 [Compound 14] | 740 | – | – | – | – | – | – | – | – | – | – | – | – | – | – | – | – | – | – | – | –
CCN(CCCl)c1ccc(CCc2nc3ccc(-c4nc5ccc(N6CCN(C)CC6)cc5[nH]4)cc3[nH]2)cc1 [Compound 15, 2-[2-[2-[4-(N-Ethyl-N-(2-chloroethyl)amino)phenyl]ethyl]-5-benzimidazoyl]-5-(1-methyl-4-piperazinyl)benzimidazole] | 120 | – | – | – | – | – | – | – | – | – | – | – | – | – | – | – | – | – | – | – | –
